Measured values from ChEMBL document CHEMBL2029223, “Identification of a phenylacylsulfonamide series of dual Bcl-2/Bcl-xL antagonists” (Bioorg Med Chem Lett, 2012).
pIC50: −log10 of the molar value. Active and inactive are the calls of the source. The rule behind the calls is not given here.

What was measured:
Bcl-2-like protein 1 = Bcl-2-like protein 1 (Homo sapiens, UniProt Q07817); assay: Inhibition of Bcl-XL using fluoresceinated 18-mer Bim as substrate after 60 mins by FRET analysis
[1] = target: Apoptosis regulator Bcl-2 (Homo sapiens, UniProt P10415); assay: Inhibition in GST-tagged Bcl2 using [FAM]-IWIAQELRRIGDEFNAYY-NH2 as substrate after 60 mins by fluorescence polarization assay
Apoptosis regulator Bcl-2, sequence (P10415 whole entry): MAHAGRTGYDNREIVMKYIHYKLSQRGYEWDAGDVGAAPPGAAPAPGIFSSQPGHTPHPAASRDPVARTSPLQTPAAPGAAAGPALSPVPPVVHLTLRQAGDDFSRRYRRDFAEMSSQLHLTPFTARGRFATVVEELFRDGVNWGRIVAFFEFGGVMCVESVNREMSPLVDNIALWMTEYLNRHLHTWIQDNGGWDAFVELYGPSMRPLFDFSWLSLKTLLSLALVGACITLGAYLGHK

MV4-11 [2] = assay: Antiproliferative activity against human MV411 cells after 72 hrs by Cell-Titer Glo assay in presence of 2% FBS; assay type: functional, cell-based; conditions: MV4-11, 72 h
[3] = Antiproliferative activity against human SU-DHL4 cells after 72 hrs by Cell-Titer Glo assay in presence of 10% FBS; assay type: functional, cell-based, SUD4; conditions: SU-DHL-4, 72 h
MV4-11 [4] = assay: Antiproliferative activity against human MV411 cells after 72 hrs by Cell-Titer Glo assay in presence of 10% FBS; assay type: functional, cell-based; conditions: MV4-11, 72 h
[5] = Antiproliferative activity against human SU-DHL4 cells after 72 hrs by Cell-Titer Glo assay in presence of 2% FBS; assay type: functional, cell-based, SUD4; conditions: SU-DHL-4, 72 h
SUD4 [6] = assay: Induction of apoptosis in human SU-DHL4 cells assessed as cytochrome c release at 10 uM after 24 hrs by Western blot analysis; assay type: functional, cell-based
SUD4 [7] = assay: Induction of apoptosis in human SU-DHL4 cells assessed as BAK oligomerization at 10 uM after 24 hrs by Western blot analysis; assay type: functional, cell-based
SUD4 [8] = assay: Induction of apoptosis in human SU-DHL4 cells assessed as BAK oligomerization at 0.1 to 10 uM after 24 hrs by Western blot analysis; assay type: functional, cell-based
SUD4 [9] = assay: Induction of apoptosis in human SU-DHL4 cells assessed as cytochrome c release at 0.1 to 10 uM after 24 hrs by Western blot analysis; assay type: functional, cell-based

Bcl-2-like protein 1, sequence (Q07817 whole entry): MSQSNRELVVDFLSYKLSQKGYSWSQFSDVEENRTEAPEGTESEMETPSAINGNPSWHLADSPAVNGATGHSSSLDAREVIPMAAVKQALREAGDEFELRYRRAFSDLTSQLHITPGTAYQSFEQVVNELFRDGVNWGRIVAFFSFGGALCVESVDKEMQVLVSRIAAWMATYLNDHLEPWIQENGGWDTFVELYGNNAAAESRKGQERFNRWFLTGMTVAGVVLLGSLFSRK

Structure (SMILES)	pIC50 (Bcl-2-like protein 1)	pIC50 [1]	pIC50 (MV4-11 [2])	pIC50 (MV4-11 [4])	pIC50 [3]	pIC50 [5]	other results
CCCCN(CCCC)C(=O)c1nn(-c2ccc(C(=O)NS(=O)(=O)c3ccc4c(c3)CCN4C(=O)c3ccc(Cl)c(Cl)c3)cc2C(=O)N2CCc3ccccc3C2)c(C)c1Cl	6.26	6.55					
CCCCN(CCCC)C(=O)c1nn(-c2ccc(C(=O)NS(=O)(=O)c3ccc4cccc(OCCN5CCOCC5)c4c3)cc2C(=O)N2CCc3ccccc3C2)c(C)c1Cl	7.39						
CCCCN(CCCC)C(=O)c1nn(-c2ccc(C(=O)NS(=O)(=O)c3ccc4ccccc4c3)cc2C(=O)N2Cc3ccccc3C[C@H]2CN2CCN(C)CC2)c(C)c1Cl	7.66	6.85	5.32	< 5.00	< 5.00	5.01	
CCCCN(CCCC)C(=O)c1nn(-c2ccc(C(=O)NS(=O)(=O)c3ccc4ccc(I)cc4c3)cc2C(=O)N2CCc3ccccc3C2)c(C)c1Cl	7.33						
CCCCN(CCCC)C(=O)c1nn(-c2ccc(C(=O)NS(=O)(=O)c3ccc4c(c3)CCN4)cc2C(=O)N2CCc3ccccc3C2)c(C)c1Cl	7.64	7.49					
CCCCN(CCCC)C(=O)c1nn(-c2ccc(C(=O)NS(=O)(=O)c3ccc4ccccc4c3)cc2C(=O)N2Cc3ccccc3C[C@H]2CN)c(C)c1Cl		8.05	5.07	< 5.00	< 5.00	< 5.00	Activity (SUD4 [8]): Active; Activity (SUD4 [9]): Active
CC1(C)CCC(c2ccc(Cl)cc2)=C(CN2CCN(c3ccc(C(=O)NS(=O)(=O)c4ccc(N[C@H](CCN5CCOCC5)CSc5ccccc5)c(S(=O)(=O)C(F)(F)F)c4)cc3)CC2)C1							Activity (SUD4 [8]): Active; Activity (SUD4 [9]): Active
O=C(c1ccc(CN(Cc2ccc(F)cc2)S(=O)(=O)c2cc(Cl)cc(Cl)c2O)cc1)N(Cc1ccc(F)cc1)Cc1cc(Cl)cc(Cl)c1	< 4.52	7.46					
CCCCN(CCCC)C(=O)c1nn(-c2ccc(NS(=O)(=O)c3cc(Cl)cc(Cl)c3O)cc2C(=O)N2CCc3ccccc3C2)c(C)c1Cl	5.37	6.04					
CCCCN(CCCC)C(=O)c1nn(-c2ccc(C(=O)NS(=O)(=O)c3ccc4cccc(OCc5ccc(C(=O)O)cc5)c4c3)cc2C(=O)N2CCc3ccccc3C2)c(C)c1Cl	7.77	7.82					
CCCCN(CCCC)C(=O)c1nn(-c2ccc(C(=O)NS(=O)(=O)c3ccc4ccc(OCCN5CCOCC5)cc4c3)cc2C(=O)N2CCc3ccccc3C2)c(C)c1Cl	7.27	6.40					
CCCCN(CCCC)C(=O)c1nn(-c2ccc(C(=O)NS(=O)(=O)c3ccc4ccccc4c3)cc2C(=O)N2CCc3ccccc3C2)c(C)c1Cl	7.62	7.49					
CCCCN(CCCC)C(=O)c1nn(-c2ccc(C(=O)NS(=O)(=O)c3ccc4ccccc4c3)cc2C(=O)N2CNc3ccccc3C2)c(C)c1Cl	7.59	7.59					
CCCCN(CCCC)C(=O)c1nn(-c2ccc(C(=O)NS(=O)(=O)c3ccc4c(c3)CCN4CC)cc2C(=O)N2CCc3ccccc3C2)c(C)c1Cl	7.77	7.11					

The next lines start with results.

pIC50 (Bcl-2-like protein 1)	pIC50 [1]	pIC50 (MV4-11 [2])	pIC50 (MV4-11 [4])	Structure (SMILES)	pIC50 [3]	pIC50 [5]	other results
7.33	7.43			CCCCN(CCCC)C(=O)c1nn(-c2ccc(C(=O)NS(=O)(=O)c3ccc4ccccc4c3)cc2C(=O)N2Cc3ccccc3C[C@H]2COCCN(C)C)c(C)c1Cl			
7.80	7.85	5.52	< 5.00	CCCCN(CCCC)C(=O)c1nn(-c2ccc(C(=O)NS(=O)(=O)c3ccc4ccccc4c3)cc2C(=O)N2Cc3ccccc3C[C@H]2CN2CCOCC2)c(C)c1Cl	< 5.00	5.20	
7.36	7.80	< 5.00	< 5.00	CCCCN(CCCC)C(=O)c1nn(-c2ccc(C(=O)NS(=O)(=O)c3ccc4c(c3)CCN4Cc3ccc(Cl)c(Cl)c3)cc2C(=O)N2CCc3ccccc3C2)c(C)c1Cl	< 5.00	< 5.00	Activity (SUD4 [6]): Active; Activity (SUD4 [7]): Active
6.23	6.15			CCCCN(CCCC)C(=O)c1nn(-c2ccc(C(=O)NS(=O)(=O)c3ccc4ccccc4c3)cc2C(=O)N2CCc3ccccc3C2C)c(C)c1Cl (stereo not given)			
7.72	7.33	5.82	< 5.00	CCCCN(CCCC)C(=O)c1nn(-c2ccc(C(=O)NS(=O)(=O)c3ccc4ccccc4c3)cc2C(=O)N2Cc3ccccc3C[C@H]2CN2CCCC2)c(C)c1Cl	< 5.00	5.74	
6.82	6.74			CCCCN(CCCC)C(=O)c1nn(-c2ccc(C(=O)NS(=O)(=O)c3ccc4cccc(S(=O)(=O)CC)c4c3)cc2C(=O)N2CCc3ccccc3C2)c(C)c1Cl			
	7.46	< 5.00	< 5.00	CCCCN(CCCC)C(=O)c1nn(-c2ccc(C(=O)NS(=O)(=O)c3ccc4ccccc4c3)cc2C(=O)N2Cc3ccccc3C[C@H]2CO)c(C)c1Cl	< 5.00	< 5.00	Activity (SUD4 [8]): Active; Activity (SUD4 [9]): Active
7.21				CCCCN(CCCC)C(=O)c1nn(-c2ccc(C(=O)NS(=O)(=O)c3ccc4ccccc4c3)cc2C(=O)N2COc3ccccc3C2)c(C)c1Cl			
7.54	7.66	5.55	< 5.00	CCCCN(CCCC)C(=O)c1nn(-c2ccc(C(=O)NS(=O)(=O)c3ccc4ccccc4c3)cc2C(=O)N2Cc3ccccc3C[C@H]2COCCCOC)c(C)c1Cl	< 5.00	5.27	
